Read-outs that look alike come from different tables or passages of the source.
[1] = RDE (Regimen 1B 120 mg) (n = 9)

Compound: COc1ncc(-c2nc3c(n2C(C)C)[C@H](c2ccc(Cl)cc2)N(c2cc(Cl)cn(C)c2=O)C3=O)c(OC)n1 [HDM201, (S)-5-(5-Chloro-1-methyl-2-oxo-1,2-dihydro-pyridin-3-yl)-6-(4-chloro-phenyl)-2-(2,4-dimethoxy-pyrimidin-5-yl)-1-isopropyl-5,6-dihydro-1H-pyrrolo[3,4-d]imidazol-4-one]
- Nausea, Grade 3/4 (1B all subjects, N=20): 1 n (%)
- Neuralgia, All Grades (1B all subjects, N=20): 1 n (%)
- Neuralgia, Grade 3/4 (1B all subjects, N=20): 0 n (%)
- Neutropenia, All Grades (1B all subjects, N=20): 6 n (%)
- Neutropenia, Grade 3/4 (1B all subjects, N=20): 5 n (%)
- Neutrophil Count Decreased, All Grades (1B all subjects, N=20): 3 n (%)
- Neutrophil Count Decreased, Grade 3/4 (1B all subjects, N=20): 2 n (%)
- Oedema, All Grades (1B all subjects, N=20): 1 n (%)
- Oedema, Grade 3/4 (1B all subjects, N=20): 0 n (%)
- Oral Candidiasis, All Grades (1B all subjects, N=20): 1 n (%)
- Oral Candidiasis, Grade 3/4 (1B all subjects, N=20): 0 n (%)
- Platelet Count Decreased, All Grades (1B all subjects, N=20): 4 n (%)
- Platelet Count Decreased, Grade 3/4 (1B all subjects, N=20): 0 n (%)
- Pruritus, All Grades (1B all subjects, N=20): 1 n (%)
- Pruritus, Grade 3/4 (1B all subjects, N=20): 0 n (%)
- Thrombocytopenia, All Grades (1B all subjects, N=20): 5 n (%)
- Thrombocytopenia, Grade 3/4 (1B all subjects, N=20): 2 n (%)
- Total, All Grades (1B all subjects, N=20): 19 n (%)
- Total, Grade 3/4 (1B all subjects, N=20): 9 n (%)
- Vomiting, All Grades (1B all subjects, N=20): 5 n (%)
- Vomiting, Grade 3/4 (1B all subjects, N=20): 0 n (%)
- Weight Decreased, All Grades (1B all subjects, N=20): 1 n (%)
- Weight Decreased, Grade 3/4 (1B all subjects, N=20): 0 n (%)
- White Blood Cell Count Decreased, All Grades (1B all subjects, N=20): 3 n (%)
- White Blood Cell Count Decreased, Grade 3/4 (1B all subjects, N=20): 0 n (%)
- Anemia, All Grades (All Regimens (N = 85)): 25 (29) n (%)
- Anemia, Grade 3/4 (All Regimens (N = 85)): 10 n (%)
- Decreased Appetite, All Grades (All Regimens (N = 85)): 19 (22) n (%)
- Decreased Appetite, Grade 3/4 (All Regimens (N = 85)): 2 n (%)
- Diarrhea, All Grades (All Regimens (N = 85)): 13 (15) n (%)
- Diarrhea, Grade 3/4 (All Regimens (N = 85)): 0 n (%)
- Fatigue, All Grades (All Regimens (N = 85)): 19 (22) n (%)
- Fatigue, Grade 3/4 (All Regimens (N = 85)): 2 n (%)
- Leukopenia, All Grades (All Regimens (N = 85)): 12 (14) n (%)
- Leukopenia, Grade 3/4 (All Regimens (N = 85)): 8 n (%)
- Nausea, All Grades (All Regimens (N = 85)): 44 (52) n (%)
- Nausea, Grade 3/4 (All Regimens (N = 85)): 1 n (%)
- Neutropenia, All Grades (All Regimens (N = 85)): 18 (21) n (%)
- Neutropenia, Grade 3/4 (All Regimens (N = 85)): 15 n (%)
- Platelet Count Decreased, All Grades (All Regimens (N = 85)): 15 (18) n (%)
- Platelet Count Decreased, Grade 3/4 (All Regimens (N = 85)): 7 n (%)
- Thrombocytopenia, All Grades (All Regimens (N = 85)): 27 (32) n (%)
- Thrombocytopenia, Grade 3/4 (All Regimens (N = 85)): 14 n (%)
- Vomiting, All Grades (All Regimens (N = 85)): 19 (22) n (%)
- Vomiting, Grade 3/4 (All Regimens (N = 85)): 0 n (%)
- White blood cell count decrease, All Grades (All Regimens (N = 85)): 11 (13) n (%)
- White blood cell count decrease, Grade 3/4 (All Regimens (N = 85)): 3 n (%)
- Anemia, All Grades [1]: 2 (22.2) n(%)
- Anemia, G3/4 [1]: 0 n(%)
- Leukopenia/white blood cell count decreased, All Grades [1]: 3 (33.3) n(%)
- Leukopenia/white blood cell count decreased, G3/4 [1]: 0 n(%)
- Neutropenia/neutrophil count decreased, All Grades [1]: 2 (22.2) n(%)
- Neutropenia/neutrophil count decreased, G3/4 [1]: 2 (22.2) n(%)
- Thrombocytopenia/platelet count decreased, All Grades [1]: 4 (44.4) n(%)
- Thrombocytopenia/platelet count decreased, G3/4 [1]: 0 n(%)
- Anemia, All Grades (Regimen 1A (n = 26)): 10 (38.5) n(%)
- Anemia, G3/4 (Regimen 1A (n = 26)): 3 (11.5) n(%)
- Leukopenia/white blood cell count decreased, All Grades (Regimen 1A (n = 26)): 9 (34.6) n(%)
- Leukopenia/white blood cell count decreased, G3/4 (Regimen 1A (n = 26)): 5 (19.2) n(%)
- Neutropenia/neutrophil count decreased, All Grades (Regimen 1A (n = 26)): 9 (34.6) n(%)
- Neutropenia/neutrophil count decreased, G3/4 (Regimen 1A (n = 26)): 8 (30.7) n(%)
- Thrombocytopenia/platelet count decreased, All Grades (Regimen 1A (n = 26)): 12 (46.2) n(%)
- Thrombocytopenia/platelet count decreased, G3/4 (Regimen 1A (n = 26)): 8 (30.8) n(%)
- Anemia, All Grades (Regimen 1B (n = 20)): 5 (25.0) n(%)
- Anemia, G3/4 (Regimen 1B (n = 20)): 0 n(%)
- Leukopenia/white blood cell count decreased, All Grades (Regimen 1B (n = 20)): 5 (25.0) n(%)
- Leukopenia/white blood cell count decreased, G3/4 (Regimen 1B (n = 20)): 1 (5.0) n(%)
- Neutropenia/neutrophil count decreased, All Grades (Regimen 1B (n = 20)): 8 (40.0) n(%)
- Neutropenia/neutrophil count decreased, G3/4 (Regimen 1B (n = 20)): 6 (30.0) n(%)
- Thrombocytopenia/platelet count decreased, All Grades (Regimen 1B (n = 20)): 9 (45.0) n(%)
- Thrombocytopenia/platelet count decreased, G3/4 (Regimen 1B (n = 20)): 2 (10.0) n(%)
- Anemia, All Grades (Regimen 2A (n = 20)): 6 (30.0) n(%)
- Anemia, G3/4 (Regimen 2A (n = 20)): 4 (20.0) n(%)
- Leukopenia/white blood cell count decreased, All Grades (Regimen 2A (n = 20)): 4 (20.0) n(%)
- Leukopenia/white blood cell count decreased, G3/4 (Regimen 2A (n = 20)): 3 (15.0) n(%)
- Neutropenia/neutrophil count decreased, All Grades (Regimen 2A (n = 20)): 5 (25.0) n(%)
- Neutropenia/neutrophil count decreased, G3/4 (Regimen 2A (n = 20)): 4 (20.0) n(%)
- Thrombocytopenia/platelet count decreased, All Grades (Regimen 2A (n = 20)): 10 (50.0) n(%)
- Thrombocytopenia/platelet count decreased, G3/4 (Regimen 2A (n = 20)): 7 (35.0) n(%)
- Anemia, All Grades (Regimen 2C (n = 19)): 4 (21.1) n(%)
- Anemia, G3/4 (Regimen 2C (n = 19)): 3 (15.8) n(%)
- Leukopenia/white blood cell count decreased, All Grades (Regimen 2C (n = 19)): 2 (10.5) n(%)
- Leukopenia/white blood cell count decreased, G3/4 (Regimen 2C (n = 19)): 1 (5.3) n(%)
- Neutropenia/neutrophil count decreased, All Grades (Regimen 2C (n = 19)): 3 (15.8) n(%)
- Neutropenia/neutrophil count decreased, G3/4 (Regimen 2C (n = 19)): 2 (10.5) n(%)
- Thrombocytopenia/platelet count decreased, All Grades (Regimen 2C (n = 19)): 8 (42.1) n(%)
- Thrombocytopenia/platelet count decreased, G3/4 (Regimen 2C (n = 19)): 3 (15.8) n(%)
- nausea, all grade, patients (all 4 regimens, 44/85): 52%
- Grade 3/4 hematological toxicities suspected to be study-drug related, patients (all treatment regimens): ≤ 35%
- overall incidence of grade 3/4 thrombocytopenia compared across the 4 regimens (regimen 1B): lowest
- dose interruptions or discontinuations due to thrombocytopenia (regimen 1B 120 mg): no dose interruptions or discontinuations
- grade 3/4 neutropenia (regimen 1B 120 mg): 2 out of 9
- non-hematologic dose limiting toxicities or grade 3/4 AEs (regimen 1B 120 mg): no non-hematologic dose limiting toxicities or grade 3/4 AEs
- platelet transfusions required (regimen 1B 120 mg): no patients required platelet transfusions
- time to first occurrence of G4 thrombocytopenia (regimen 1B 150 mg): > 100 days
- therapeutic index among the 4 dosing regimens (regimen 1B (d1 and d8 of 4 w cycle)): most favorable therapeutic index
- lipase increase, CTCAE grade 3/4, patients (regimen 1B, 20 patients): 15%
- nausea, all grades, patients (regimen 1B, 20 patients): 60.0%
- neutropenia/neutrophil count decreased, CTCAE grade 3/4, patients (regimen 1B, 20 patients): 30.0%
- neutropenia/neutrophil count decreased, all grades, patients (regimen 1B, 20 patients): 40.0%
- patients with at least one CTCAE grade 3/4 AE suspected to be treatment-related (regimen 1B, 20 patients): 45.0%
- thrombocytopenia/platelet count decrease, CTCAE grade 3/4, patients (regimen 1B, 20 patients): 10.0%
- thrombocytopenia/platelet count decreased, all grades, patients (regimen 1B, 20 patients): 45.0%
- vomiting, all grades, patients (regimen 1B, 20 patients): 25.0%
